In ChEMBL document CHEMBL5034037, “Synthesis, Characterization, and Preclinical Evaluation of a Small-Molecule Prostate-Specific Membrane Antigen-Targeted Monomethyl Auristatin E Conjugate” (J Med Chem, 2021):
Active and inactive are the calls of the source. The rule behind the calls is not given here. *1 amine or outer side, *2 acyl side, *3 side chain or, on linkers, in order; H or OH if unused. Where a SMILES comes first, the peptide text is derived from it. [ ]: non-standard residue; d: D form. The star is where a group is joined. GluureaLys(ε-3-ClBenzyl) = O=C(O)CC[C@H](NC(=O)N[C@@H](CCCCN(Cc1cccc(Cl)c1)*)C(=O)O)C(=O)O; Dolaproine = CO[C@@H]([C@@H]1CCCN1)[C@@H](C)C(=O)O; Dil = CC[C@H](C)[C@H](NC)[C@@H](CC(=O)O)OC; X1 = O=C(CCCc1cn(CCCN[*:1])nn1)[*:2]; PABC = O=C(OCc1ccc(N[*:1])cc1)[*:2]; X2 = C[C@@H](N*)[C@@H](O)c1ccccc1; Cit = NC(=O)NCCC[C@H](N)C(=O)O; Suc = O=C(CCC(=O)[*:2])[*:1]; NMeV = CN[C@H](C(=O)O)C(C)C; Ahx = NCCCCCC(=O)O

Tests used:
Cathepsin B = Cathepsin B (Homo sapiens, UniProt P07858); assay: Stability of compound at pH 3.6 assessed as recombinant cathepsin B (unknown origin) mediated hydrolysis half life by HPLC-MS analysis; format: ADME
PC-3 [1] = assay: Induction of intracellular reactive oxygen species production in human PC-3 cells incubated for 1 hr measured at CC50 concentration by amperometric method; format: functional, cell-based
[2] = Stability of compound in pH 7.4 assessed as hydrolysis measured within 96 hrs; format: physicochemical; conditions: buffer, pH 7.4, 96 h
[3] = Toxicity in rabbit assessed as morphological changes in liver at 81 to 122 microg/kg, iv; format: tissue-based, Oryctolagus cuniculus; conditions: in vivo, dose 81-122 µg/kg
[4] = Toxicity in rat assessed as morphological changes in kidney at 150 to 225 microg/kg, iv; format: tissue-based; conditions: in vivo, dose 150-225 µg/kg
[5] = Chronic toxicity in rabbit assessed as decrease in the blood lymphocyte count at […], iv administered once every 3 weeks for 3 months; format: organism-based, Oryctolagus cuniculus; conditions: in vivo, 504 h, dose lower 81 mg/kg
[6] = Chronic toxicity in rat assessed as change in acidity at […], iv administered once every 3 weeks for 3 months; format: organism-based; conditions: in vivo, 504 h, dose lower 150 mg/kg
[7] = Chronic toxicity in rat assessed as mortality rate at 10 microg/kg, iv dosed measured after 3 days; format: organism-based; conditions: in vivo, 0.01 mg/kg, dose 10 µg/kg, time 3 day, read-out: Activity
[8] = Chronic toxicity in rabbit assessed as mortality rate at 5.4 microg/kg, iv dosed measured at day 4; format: organism-based, Oryctolagus cuniculus; conditions: in vivo, 0.0054 mg/kg, dose 5.4 µg/kg, read-out: Activity
[9] = Chronic toxicity in rabbit assessed as increase in stomach weight at 5.4 microg/kg, iv; format: tissue-based, Oryctolagus cuniculus; conditions: in vivo, 0.0054 mg/kg, dose 5.4 µg/kg
[10] = Toxicity in rabbit morphological change in mucosae of mouth at 81 to 122 microg/kg, iv; format: tissue-based, Oryctolagus cuniculus; conditions: in vivo, dose 81-122 µg/kg
[11] = Toxicity in rabbit assessed as morphological changes in loops of colon at 81 to 122 microg/kg, iv; format: tissue-based, Oryctolagus cuniculus; conditions: in vivo, dose 81-122 µg/kg
[12] = Toxicity in rat assessed as morphological changes in loops of colon at 150 to 225 microg/kg, iv; format: tissue-based; conditions: in vivo, dose 150-225 µg/kg
[13] = Toxicity in rat assessed as morphological changes in pancreas at 150 to 225 microg/kg, iv; format: tissue-based; conditions: in vivo, dose 150-225 µg/kg
[14] = Toxicity in rabbit assessed as morphological changes in bronchi at 81 to 122 microg/kg, iv; parameters: species or system Oryctolagus cuniculus; conditions: in vivo, dose 81-122 µg/kg
[15] = Toxicity in rat assessed as morphological changes in bronchi at 150 to 225 microg/kg, iv; conditions: in vivo, dose 150-225 µg/kg
[16] = Toxicity in rabbit assessed as morphological changes in mucosa of thyroid gland at 81 to 122 microg/kg, iv; format: tissue-based, Oryctolagus cuniculus; conditions: in vivo, dose 81-122 µg/kg
[17] = Toxicity in rat assessed as morphological changes in mucosa of thyroid gland at 150 to 225 microg/kg, iv; format: tissue-based; conditions: in vivo, dose 150-225 µg/kg
[18] = Toxicity in rabbit assessed as morphological changes in adrenal medulla at 81 to 122 microg/kg, iv; parameters: species or system Oryctolagus cuniculus; conditions: in vivo, dose 81-122 µg/kg
[19] = Toxicity in rat assessed as morphological changes in thymus at 150 to 225 microg/kg, iv; format: tissue-based; conditions: in vivo, dose 150-225 µg/kg
[20] = Toxicity in rabbit assessed as morphological changes in brain gyrus at 81 to 122 microg/kg, iv; format: tissue-based, Oryctolagus cuniculus; conditions: in vivo, dose 81-122 µg/kg
[21] = Toxicity in rabbit assessed as morphological changes in lumen of trachea at 81 to 122 microg/kg, iv; format: tissue-based, Oryctolagus cuniculus; conditions: in vivo, dose 81-122 µg/kg
[22] = Toxicity in rat assessed as morphological changes in aortic intima at 150 to 225 microg/kg, iv; conditions: in vivo, dose 150-225 µg/kg
[23] = Toxicity in rat assessed as morphological changes in brain ventricle at 150 to 225 microg/kg, iv; format: tissue-based; conditions: in vivo, dose 150-225 µg/kg
[24] = Toxicity in rabbit assessed as morphological changes in urinary bladder at 81 to 122 microg/kg, iv; parameters: species or system Oryctolagus cuniculus; conditions: in vivo, dose 81-122 µg/kg
[25] = Toxicity in rabbit assessed as pathological change in leydig cells in testes at 81 to 122 microg/kg, iv; format: cell-based, Oryctolagus cuniculus; conditions: in vivo, dose 81-122 µg/kg
[26] = Antitumor activity against human 22Rv1 cells xenografted in mouse assessed as tumour growth inhibition at 10 mg/kg,ip daily treated for 5 days after 18 days of tumor implantation measured upto 10 days; format: functional, CWR22R; conditions: 22Rv1, ip, 120 h, time 5 day, read-out: TGI
[27] = Initial plasma concentration in rabbit plasma at 0.81 mg/kg, iv; format: ADME, organism-based, Oryctolagus cuniculus
[28] = Antitumor activity against human PC-3 cells xenografted in mouse assessed as tumour growth inhibition at 0.3 mg/kg, ip daily treated for 5 days after 18 days of tumor implantation measured upto 15 days; format: functional; conditions: PC-3, ip, 120 h, time 5 day, read-out: TGI
[29] = Elimination rate constant in Wistar rat at 1.5 mg/kg, iv; format: ADME, organism-based; conditions: in vivo
[30] = Volume of distribution in Wistar rat at 1.5 mg/kg, iv; format: ADME, organism-based; conditions: in vivo
[31] = Mean residence time in rabbit at 0.81 mg/kg, iv; format: ADME, organism-based, Oryctolagus cuniculus; conditions: in vivo
[32] = Ratio of AUC (t to infinity) to AUC (0 to infinity) in rabbit plasma at 0.81 mg/kg, iv; format: ADME, organism-based, Oryctolagus cuniculus; conditions: in vivo
Cytochrome P450 3A4 [33] = biological target: T1, Cytochrome P450 3A4 (Homo sapiens, UniProt P08684); assay: Inhibition of CYP3A4 in human liver microsome using midazolam as substrate; format: ADME, microsomes
T1 sequence (P08684 whole entry): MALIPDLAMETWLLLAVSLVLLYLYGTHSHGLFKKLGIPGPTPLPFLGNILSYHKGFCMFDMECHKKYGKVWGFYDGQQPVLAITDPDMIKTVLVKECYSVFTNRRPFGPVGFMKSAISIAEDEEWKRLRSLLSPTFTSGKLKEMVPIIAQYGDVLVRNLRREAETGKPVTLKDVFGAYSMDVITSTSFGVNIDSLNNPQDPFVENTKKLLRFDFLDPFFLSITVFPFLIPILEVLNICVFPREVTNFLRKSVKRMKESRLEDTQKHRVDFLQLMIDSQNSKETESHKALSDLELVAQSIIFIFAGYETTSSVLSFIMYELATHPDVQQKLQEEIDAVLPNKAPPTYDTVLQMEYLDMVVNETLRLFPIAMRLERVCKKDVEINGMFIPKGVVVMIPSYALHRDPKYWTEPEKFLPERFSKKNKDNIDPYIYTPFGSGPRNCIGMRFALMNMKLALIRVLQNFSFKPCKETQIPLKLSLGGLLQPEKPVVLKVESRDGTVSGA

Cytochrome P450 3A4 [34] = biological target: T1, Cytochrome P450 3A4; assay: Inhibition of CYP3A4 in human liver microsome using testosterone as substrate; format: ADME, microsomes
[35] = Stability of the compound in mouse liver microsome; format: ADME; conditions: microsomes
Cytochrome P450 2C19 = Cytochrome P450 2C19 (Homo sapiens, UniProt P33261); assay: Drug metabolism assessed as human liver microsome CYP2C19-mediatd metabolism; format: ADME; conditions: microsomes
Chain of Cytochrome P450 2C19 (P33261 whole entry): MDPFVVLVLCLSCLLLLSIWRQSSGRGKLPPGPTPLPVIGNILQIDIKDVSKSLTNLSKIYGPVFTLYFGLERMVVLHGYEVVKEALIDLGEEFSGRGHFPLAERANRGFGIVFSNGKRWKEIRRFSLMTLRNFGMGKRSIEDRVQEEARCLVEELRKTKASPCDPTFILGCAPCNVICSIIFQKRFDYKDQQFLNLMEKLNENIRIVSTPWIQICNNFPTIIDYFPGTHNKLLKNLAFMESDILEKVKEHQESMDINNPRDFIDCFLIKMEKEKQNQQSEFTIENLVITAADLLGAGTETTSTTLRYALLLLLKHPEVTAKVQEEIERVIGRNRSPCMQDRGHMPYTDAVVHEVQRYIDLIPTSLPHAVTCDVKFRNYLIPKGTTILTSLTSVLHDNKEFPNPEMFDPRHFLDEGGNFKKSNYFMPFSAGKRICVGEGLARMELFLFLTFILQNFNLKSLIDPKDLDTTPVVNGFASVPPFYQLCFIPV

Salmonella typhimurium [36] = assay: Mutagenecity in Salmonella typhimurium TA98 in presence of metabolic activation system at 100 ug/ml by Ames test; format: toxicity, organism-based; conditions: salmonella enterica subsp. enterica serovar typhimurium; dose 100 µg/ml
Salmonella typhimurium [37] = assay: Mutagenecity in Salmonella typhimurium TA97 in presence of metabolic activation system at 100 ug/ml by Ames test; format: toxicity, organism-based; conditions: salmonella enterica subsp. enterica serovar typhimurium; dose 100 µg/ml
Salmonella typhimurium [38] = assay: Mutagenecity in Salmonella typhimurium TA100 in presence of metabolic activation system at 10000 ug/ml by Ames test; format: toxicity, organism-based; conditions: salmonella enterica subsp. enterica serovar typhimurium; dose 10000 µg/ml
Salmonella typhimurium [39] = assay: Mutagenecity in Salmonella typhimurium TA100 without metabolic activation system at 1000 ug/ml by Ames test; format: toxicity, organism-based; conditions: salmonella enterica subsp. enterica serovar typhimurium; dose 1000 µg/ml
Salmonella typhimurium [40] = assay: Mutagenecity in Salmonella typhimurium TA100 without metabolic activation system at 100 ug/ml by Ames test; format: toxicity, organism-based; conditions: salmonella enterica subsp. enterica serovar typhimurium; dose 100 µg/ml
Salmonella typhimurium [41] = assay: Mutagenecity in Salmonella typhimurium TA97 without metabolic activation system at 10 ug/ml by Ames test; format: toxicity, organism-based; conditions: salmonella enterica subsp. enterica serovar typhimurium; dose 10 µg/ml
PC-3 [42] = assay: Induction morphological changes in human PC-3 cells assessed as decrease in cell membrane stiffness measured immediately after MMAE addition; format: functional, cell-based; conditions: time hrs <=1
[43] = Toxicity in rabbit assessed as hemorrhage at 81 to 122 microg/kg, iv; parameters: species or system Oryctolagus cuniculus; conditions: in vivo, dose 81-122 µg/kg

In the case of `CC[C@H](C)[C@@H]([C@@H](CC(=O)N1CCC[C@H]1[C@H](OC)[C@@H](C)C(=O)N[C@H](C)[C@@H](O)c1ccccc1)OC)N(C)C(=O)[C@@H](NC(=O)[C@H](C(C)C)N(C)C(=O)OCc1ccc(NC(=O)[C@H](CCCNC(N)=O)NC(=O)[C@@H](NC(=O)CCCc2cn(CCCNC(=O)[C@H](Cc3ccc(O)cc3)NC(=O)[C@H](Cc3ccccc3)NC(=O)CCC(=O)NCCCCCC(=O)N(CCCC[C@H](NC(=O)N[C@@H](CCC(=O)O)C(=O)O)C(=O)O)Cc3cccc(Cl)c3)nn2)C(C)C)cc1)C(C)C` ({GluureaLys(ε-3-ClBenzyl)-Ahx-Suc}-FY[X1]V[Cit][PABC][NMeV]V[Dil][Dolaproine]-X2), the half-life (Cathepsin B) is reported as 0.417 h, the Activity (PC-3 [1]) is reported as “Active” and the Stability [2] is reported as “Stable”. For the same compound, the Activity [3] was “Non-Toxic”, the Activity [4] was “Non-Toxic” and the Activity [5] was “Toxic”. The Activity [6] was “Toxic”, the mortality at 72 h [7] was 90% and the mortality at 4 day [8] was 100%. For the same compound, the Activity [9] was “Toxic”, the Activity [10] was “Non-Toxic” and the Activity [11] was “Non-Toxic”. For the same compound, the Activity [12] was “Non-Toxic”, the Activity [13] was “Non-Toxic” and the Activity [14] was “Non-Toxic”. For the same compound, the Activity [15] was “Non-Toxic”, the Activity [16] was “Non-Toxic” and the Activity [17] was “Non-Toxic”. The Activity [18] was “Non-Toxic”, the Activity [19] was “Non-Toxic” and the Activity [20] was “Non-Toxic”. The Activity [21] was “Non-Toxic”, the Activity [22] was “Non-Toxic” and the Activity [23] was “Non-Toxic”. The Activity [24] was “Non-Toxic”, the Activity [25] was “Non-Toxic” and the inhibition in vivo at 10 mg/kg [26] was 84%. The C0 [27] was 11000 ng/mL, the inhibition in vivo at 0.3 mg/kg [28] was 37.7% and the k el [29] was 4.17e-05 s⁻¹. For the same compound, the Vd [30] was 0.126 L/kg, the MRT [31] was 3.4 h and the Ratio [32] was 13%. The IC50 (Cytochrome P450 3A4 [33]) was 11.2 µM, the IC50 (Cytochrome P450 3A4 [34]) was 11.2 µM and the Stability [35] was “Unstable”. For the same compound, the Drug metabolism (Cytochrome P450 2C19) was “Metabolite_Notdetected”, the Activity (Salmonella typhimurium [36]) was “Non-Toxic” and the Activity (Salmonella typhimurium [37]) was “Non-Toxic”. For the same compound, the Activity (Salmonella typhimurium [38]) was “Non-Toxic”, the Activity (Salmonella typhimurium [39]) was “Non-Toxic” and the Activity (Salmonella typhimurium [40]) was “Non-Toxic”. The Activity (Salmonella typhimurium [41]) was “Non-Toxic”, the Activity (PC-3 [42]) was “inactive” and the Activity [43] was “Toxic”.
